This is an account of results in US4935418A, “Medical compositions of 1-aryloxy-2,3,4,5-tetrahydro-3-benzazepines and use thereof” (Hoechst-Roussel Pharmaceuticals Inc., priority 1988, dated 1990).

Structures are written as SMILES. Counter-ions that a name gives are not always drawn.

Holding throughout (type): in vivo
In test [1] the test system is 2-phenyl-1,4-benzoquinone-induced writhing in mice. The test can be described thus: 2-phenyl-1,4-benzoquinone-induced writhing test in mice. The note with it: Mus musculus, sc. From the text:
The compounds of the invention are also useful as analgesic agents due to their ability to alleviate pain in mammals. […] Exptl. Biol. Med., 95, 729 (1957)].

The subject of test [2] is spontaneous hypertensive rat. Nature of the test: antihypertensive activity in the spontaneous hypertensive rat, indirect tail cuff method. The settings on record: 50 mg/kg of body weight, oral, three days, measured on third day. The procedure:
In this procedure a group of five animals are treated orally for three days with the test compound in relation to the control group of the same number. The drop in blood pressure is measured on the third day following administration.

For test [3], the system named is 5-hydroxytryptophan induced seizures in rats. Nature of the test: potentiation of 5-hydroxytryptophan induced seizures in rats. The note with it: Rattus norvegicus, ip, intraperitoneal, read-out: ED50 (potentiation of 5-hydroxytryptophan induced seizures in 50% of the animals). From the text:
The antidepressant activities of some of the compounds of the invention expressed in terms of a potentiation of 5-hydroxytryptophan induced seizures in 50% of the animals is given in Table II.

Test [4] concerns tetrabenazine induced ptosis in mice. The test can be described thus: inhibition of tetrabenazine induced ptosis in mice. The note with it: Mus musculus, oral, read-out: ED50 (50% inhibition of tetrabenazine-induced ptosis). An excerpt:
The antidepressant activities of some of the compounds of the invention expressed in terms of a 50% inhibition of ptosis of tetrabenazine-induced ptosis in mice is given in Table I.

Regarding `CCC(=O)O[C@](Cc1ccccc1)(c1ccccc1)[C@H](C)CN(C)C` [propoxyphene, reference compound], in test [1] (read-out: Inhibition of Writhing), the inhibition in vivo at 3.9 mg/kg worked out at 50%.
Take `CNCCN1CCc2ccccc2C(Oc2ccc(C(F)(F)F)cc2)C1.O=C(O)C(=O)O.O=C(O)C(=O)O` (centres unmarked) [3-(2-Methylaminoethyl)-2,3,4,5-tetrahydro-1-(p-trifluoromethylphenoxy)-3-benzazepine dioxalate]: the “Decrease in Blood Pressure (mean arterial)” value (“Decrease in Blood Pressure” for short) in test [2] was 33 mm HG.
The term ED50 denotes the dose that gives a 50% effect, or the effect in half of the subjects. On to `COc1cc2c(cc1OC)C(Oc1cccc(Cl)c1)CNCC2.O=C(O)C(=O)O` (centres unmarked) [1-(m-Chlorophenoxy)-7,8-dimethoxy-2,3,4,5-tetrahydro-3-benzazepine oxalate], for which the median effective dose (ED50) in test [3] was 1.1 mg/kg; in test [4], 4.2 mg/kg.
With `N=C(N)NCCN1CCCCCCC1` [guanethidine, reference compound], the “Decrease in Blood Pressure” value in test [2] was determined as 20 mm HG.
As to `NCCCN1CCc2ccccc2C(Oc2ccc(C(F)(F)F)cc2)C1` (centres unmarked) [3-(3-Aminopropyl)-2,3,4,5-tetrahydro-1-(p-trifluoromethylphenoxy)-3-benzazepine dimaleate], the inhibition in vivo at 8.2 mg/kg in test [1] (subcutaneous, 8.2 mg/kg, mice) came to 50%.
`Clc1cccc(OC2CN(CCc3ccccc3)CCc3ccccc32)c1` (centres unmarked) [1-(m-Chlorophenoxy)-3-(2-phenylethyl)-2,3,4,5-tetrahydro-3-benzazepine oxalate] had an inhibition in vivo at 25 mg/kg in test [1] (subcutaneous, mice) of 42%.
In the case of `Clc1cccc(OC2CN(CC3CC3)CCc3ccccc32)c1` (centres unmarked) [1-(m-Chlorophenoxy)-3-cyclopropylmethyl-2,3,4,5-tetrahydro-3-benzazepine oxalate], the inhibition in vivo at 25 mg/kg in test [1] (subcutaneous, mice) was determined as 66%.
On to `COc1cc2c(cc1OC)C(Oc1ccc(C)cc1)CN(C)CC2` (centres unmarked) [7,8-Dimethoxy-3-methyl-1-(4-methylphenoxy)-2,3,4,5-tetrahydro-3-benzazepinemaleate], for which the ED50 in test [3] stood at 0.9 mg/kg.
Turning to `CC(CN)N1CCc2ccccc2C(Oc2ccc(C(F)(F)F)cc2)C1` (centres unmarked) [3-(2-Amino-1-methyl)ethyl-2,3,4,5-tetrahydro-1-(p-trifluoromethylphenoxy)-3-benzazepine dioxalate], the “Decrease in Blood Pressure” value in test [2] was determined as 51 mm HG.
As for `NCCN1CCc2ccccc2C(Oc2ccc(C(F)(F)F)cc2)C1.O=C(O)C(=O)O.O=C(O)C(=O)O` (centres unmarked) [3-(2-Aminoethyl)-2,3,4,5-tetrahydro-1-(p-trifluoromethylphenoxy)-3-benzazepine dioxalate], in test [2], the “Decrease in Blood Pressure” value is listed as 61 mm HG.
As to `Br.COc1ccc(OC2CN(C)CCc3ccccc32)cc1` (centres unmarked) [1-(p-Methoxyphenoxy)-3-methyl-2,3,4,5-tetrhydro-3-benzazepine hydrobromide], in test [2], the “Decrease in Blood Pressure” value amounted to 48 mm HG. In addition, the inhibition in vivo at 20 mg/kg in test [1] (subcutaneous, mice) was 46%.
Take `CNCCCN1c2ccccc2CCc2ccccc21` [desipramine, reference compound]: the median effective dose (ED50) in test [4] amounted to 2.3 mg/kg.
`Br.Cc1ccc(OC2CN(C)CCc3ccccc32)cc1` (centres unmarked) [3-Methyl-1-(p-methylphenoxy)-2,3,4,5-tetrahydro-3-benzazepine Hydrobromide]: the “Decrease in Blood Pressure” value in test [2] was 35 mm HG.
`COc1cc2c(cc1OC)C(Oc1ccccc1)CNCC2.O=C(O)C(=O)O` (centres unmarked) [7,8-Dimethoxy-1-phenoxy-2,3,4,5-tetrahydro-3-benzazepine oxalate]: the 50% effective dose (ED50) in test [3] amounted to 0.85 mg/kg; in test [4], 3.7 mg/kg.
Turning to `FC(F)(F)c1ccc(OC2CNCCc3ccccc32)cc1.O=C(O)C(=O)O` (centres unmarked) [1-(p-Trifluoromethylphenoxy)-2,3,4,5-tetrahydro-3-benzazepine oxalate], the median effective dose (ED50) in test [3] is 2.9 mg/kg.
As to `CCCN1CCc2cc(OC)c(OC)cc2C(Oc2ccccc2)C1.O=C(O)C(=O)O` (centres unmarked) [7,8-Dimethoxy-1-phenoxy-3-(n-propyl)-2,3,4,5-tetrahydro-3-benzazepine oxalate], the ED50 in test [3] was 0.7 mg/kg.
Turning to `COc1ccc(OC2CN(C)CCc3cc(OC)c(OC)cc32)cc1` (centres unmarked) [7,8-Dimethoxy-1-(4-methoxyphenoxy)-3-methyl-2,3,4,5-tetrahydro-3-benzazepine hydrochloride], the inhibition in vivo at 7.6 mg/kg in test [1] (subcutaneous, 7.6 mg/kg, mice) was 50%.
Turning to `COc1cc2c(cc1OC)C(Oc1ccccc1)CN(C)CC2.O=C(O)C(=O)O` (centres unmarked) [7,8-Dimethoxy-3-methyl-1-phenoxy-2,3,4,5-tetrahydro-3-benzazepine oxalate], the inhibition in vivo at 20 mg/kg in test [1] (subcutaneous, mice) was determined as 58%. Further, the ED50 in test [3] stood at 7.5 mg/kg; in test [4], 3.8 mg/kg.
As to `COc1ccc(OC2CNCCc3cc(OC)c(OC)cc32)cc1.O=C(O)/C=C\C(=O)O` (centres unmarked) [7,8-Dimethoxy-1-(4-methoxyphenoxy)-2,3,4,5-tetrahydro-3-benzazepine maleate], the ED50 in test [3] turned out to be 0.9 mg/kg.
Same read-out and setting: then `COc1cc2c(cc1OC)C(Oc1ccc(F)cc1)CNCC2.O=C(O)/C=C\C(=O)O` (centres unmarked) [7,8-Dimethoxy-1-(4-fluorophenoxy)-2,3,4,5-tetrahydro-3-benzazepine maleate], with 2.9 mg/kg.
On to `COc1cc2c(cc1OC)C(Oc1ccc(C(F)(F)F)cc1)CNCC2` (centres unmarked) [7,8-Dimethoxy-2,3,4,5-tetrahydro-1-(p-trifluoromethylphenoxy)-3-benzazepineoxalate], for which, in test [2], the “Decrease in Blood Pressure” value was 49 mm HG.
Consider `COc1cc2c(cc1OC)C(Oc1ccc(C(F)(F)F)cc1)CN(C)CC2.Cl` (centres unmarked) [7,8-Dimethoxy-3-methyl-2,3,4,5-tetrahydro-1-(p-trifluoromethylphenoxy)-3-benzazepine hydrochloride], for which the “Decrease in Blood Pressure” value in test [2] turned out to be 43 mm HG. The inhibition in vivo at 5.7 mg/kg in test [1] (subcutaneous, 5.7 mg/kg, mice) amounted to 50%.
In the case of `NCCN1CCc2ccccc2C(Oc2cccc(Cl)c2)C1.O=C(O)C(=O)O.O=C(O)C(=O)O` (centres unmarked) [3-(2-Aminoethyl)-1-(m-chlorophenoxy)-2,3,4,5-tetrahydro-3-benzazepine dioxalate], the median effective dose (ED50) in test [4] was determined as 7.5 mg/kg.
